From patent US6384047B1, “Benzonaphthyridine” (Byk Gulden Lomberg Chemische Fabrik GmbH, priority 1997, dated 2002)

Key:
[1] = biological target: PDE1 (Ca2+/calmodulin-dependent) from bovine brain; experiment: Inhibition of the PDE isoenzymes: PDE1; assay type: biochemical; details: Ca2+ (1 mM) and calmodulin (100 nM), cGMP as substrate
Description: (§1) The PDE activity was determined according to Thompson et al. (1) with a few modifications (2). The test samples contained 40 mM tris HCl (pH 7.4), 5 mM MgCl2, 0.5 μM cAMP or cGMP, [^3H] cAMP or [^3H]cGMP (about 50,000 cpm/sample), the PDE isoenzyme-specific additives described in greater detail below, the given concentrations of inhibitor and an aliquot of the enzyme solution in a total sample volume of […]. […] After preincubation at 37° C. for 5 minutes, the reaction was started by addition of the substrate (cAMP or cGMP). The samples were incubated at 37° C. for a further 15 min. The reaction was stopped by addition of 50 μl of 0.2N HCl. After cooling on ice for 10 minutes and addition of 25 μg of 5′-nucleotidase (snake venom from Crotalus atrox), incubation was carried out again for 10 min. at 37° C. and the samples were then applied to QAE Sephadex A-25 columns. The columns were eluted with 2 ml of 30 mM ammonium formate (pH 6.0). The radioactivity of the eluate was measured and corrected by the corresponding blank values. The proportion of hydrolyzed nucleotide in no case exceeded 20% of the original substrate concentration.
PDE1 (Ca^2+/calmodulin-dependent) from bovine brain: the inhibition of this isoenzyme was investigated in the presence of Ca^2+ (1 mM) and calmodulin (100 nM) using cGMP as a substrate (3).
(§2) The IC50 values were determined from the concentration inhibition curves by nonlinear regression using the program GraphPad InPlot™ (GraphPad Software Inc., Philadelphia, USA).

[2] = biological target: T1, PDE2 (cGMP-stimulated) from rats' hearts (Rattus norvegicus, UniProt Q01062); experiment: Inhibition of the PDE isoenzymes: PDE2; assay type: biochemical; details: in presence of cGMP (5 μM), cAMP as substrate, read-out: PDE2 inhibitory concentration as -log IC50 (converted)
T1 construct: PDE2 (cGMP-stimulated) from rats' hearts was purified chromatographically; from tissue; host or cells: rat heart
T1 sequence (Q01062 1-928): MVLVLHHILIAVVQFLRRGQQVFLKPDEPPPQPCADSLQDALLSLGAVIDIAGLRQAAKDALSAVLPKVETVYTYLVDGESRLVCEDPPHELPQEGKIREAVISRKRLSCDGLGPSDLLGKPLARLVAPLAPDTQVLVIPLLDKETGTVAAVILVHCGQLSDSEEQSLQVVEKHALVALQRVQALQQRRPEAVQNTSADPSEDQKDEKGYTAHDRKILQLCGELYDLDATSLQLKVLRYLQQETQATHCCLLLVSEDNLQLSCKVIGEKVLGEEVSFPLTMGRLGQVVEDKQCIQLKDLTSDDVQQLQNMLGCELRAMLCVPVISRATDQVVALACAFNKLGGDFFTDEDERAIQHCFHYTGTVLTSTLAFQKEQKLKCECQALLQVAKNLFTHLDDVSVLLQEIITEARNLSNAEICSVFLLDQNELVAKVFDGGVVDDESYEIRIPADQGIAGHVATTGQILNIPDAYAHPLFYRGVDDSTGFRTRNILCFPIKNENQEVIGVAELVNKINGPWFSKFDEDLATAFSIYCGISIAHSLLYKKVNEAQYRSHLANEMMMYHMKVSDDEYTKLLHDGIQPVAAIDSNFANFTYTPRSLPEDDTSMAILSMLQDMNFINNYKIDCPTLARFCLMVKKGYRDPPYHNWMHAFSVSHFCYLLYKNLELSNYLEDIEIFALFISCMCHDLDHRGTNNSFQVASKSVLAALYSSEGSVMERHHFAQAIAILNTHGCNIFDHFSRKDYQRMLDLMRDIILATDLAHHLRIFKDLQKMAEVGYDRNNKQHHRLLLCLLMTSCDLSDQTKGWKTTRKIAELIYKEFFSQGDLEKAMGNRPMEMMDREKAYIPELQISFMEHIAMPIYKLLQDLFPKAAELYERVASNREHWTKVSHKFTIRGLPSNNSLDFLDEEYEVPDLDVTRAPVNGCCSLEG
Description: as §1
PDE2 (cGMP-stimulated) from rats' hearts was purified chromatographically [Schudt et al. (4)] and investigated in the presence of cGMP (5 μM) using cAMP as a substrate.
as §2

[3] = biological target: T2, PDE3 (cGMP-inhibited), homogenates of human blood platelets (Homo sapiens, UniProt Q14432); experiment: Inhibition of the PDE isoenzymes: PDE3; assay type: biochemical; details: cAMP as substrate, read-out: PDE3 inhibitory concentration as -log IC50 (converted)
T2 construct: were investigated in homogenates of human blood platelets; from tissue; host or cells: human blood platelets (homogenate)
T2 sequence (Q14432 whole entry): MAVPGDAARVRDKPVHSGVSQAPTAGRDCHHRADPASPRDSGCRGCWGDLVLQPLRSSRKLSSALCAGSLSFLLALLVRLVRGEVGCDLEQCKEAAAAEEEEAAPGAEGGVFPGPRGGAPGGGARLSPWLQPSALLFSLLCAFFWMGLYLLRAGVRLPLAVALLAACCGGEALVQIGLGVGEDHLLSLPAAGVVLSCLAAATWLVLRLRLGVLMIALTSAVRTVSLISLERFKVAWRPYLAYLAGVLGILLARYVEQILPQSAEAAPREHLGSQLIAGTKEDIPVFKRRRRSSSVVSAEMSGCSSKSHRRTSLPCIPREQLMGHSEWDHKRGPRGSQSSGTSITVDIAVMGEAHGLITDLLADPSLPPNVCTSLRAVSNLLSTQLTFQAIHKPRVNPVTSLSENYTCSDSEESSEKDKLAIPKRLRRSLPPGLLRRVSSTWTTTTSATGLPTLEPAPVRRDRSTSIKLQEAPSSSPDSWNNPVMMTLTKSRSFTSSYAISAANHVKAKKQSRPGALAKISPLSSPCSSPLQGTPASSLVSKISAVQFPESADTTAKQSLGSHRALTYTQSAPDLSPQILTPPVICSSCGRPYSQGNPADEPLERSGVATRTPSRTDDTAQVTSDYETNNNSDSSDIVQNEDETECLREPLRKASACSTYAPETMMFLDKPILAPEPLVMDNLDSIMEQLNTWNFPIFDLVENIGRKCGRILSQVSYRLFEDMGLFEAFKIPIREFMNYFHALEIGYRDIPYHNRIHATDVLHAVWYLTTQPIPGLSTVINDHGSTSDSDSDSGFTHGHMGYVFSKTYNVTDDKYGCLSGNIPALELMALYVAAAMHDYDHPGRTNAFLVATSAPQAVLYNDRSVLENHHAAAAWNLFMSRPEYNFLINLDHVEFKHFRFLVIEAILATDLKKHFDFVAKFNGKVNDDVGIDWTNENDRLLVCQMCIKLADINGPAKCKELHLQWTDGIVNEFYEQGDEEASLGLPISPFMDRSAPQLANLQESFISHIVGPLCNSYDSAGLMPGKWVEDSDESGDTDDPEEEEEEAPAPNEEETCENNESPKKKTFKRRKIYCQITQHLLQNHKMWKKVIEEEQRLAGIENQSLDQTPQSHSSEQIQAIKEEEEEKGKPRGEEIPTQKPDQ
Description: as §1
(§3) PDE3 (cGMP-inhibited) and PDE5 (cGMP-specific) were investigated in homogenates of human blood platelets [Schudt et al. (4)] using cAMP or cGMP as a substrate.
as §2

[4] = biological target: PDE4 (cAMP-specific), cytosol of human polymorphonuclear leucocytes (PMNL); experiment: Inhibition of the PDE isoenzymes: PDE4; assay type: biochemical; details: cAMP as substrate, motapizone (1 μM) present
Description: as §1
PDE4 (cAMP-specific) was investigated in the cytosol of human polymorphonuclear leucocytes (PMNL) [isolated from leucocyte concentrates, see Schudt et al. (5)] using cAMP as a substrate. The PDE3 inhibitor motapizone (1 μM) was used in order to suppress the PDE3 activity emanating from contaminating blood platelets.
as §2

[5] = biological target: T3, PDE5 (cGMP-specific), homogenates of human blood platelets (Homo sapiens, UniProt O76074); experiment: Inhibition of the PDE isoenzymes: PDE5; assay type: biochemical; details: cGMP as substrate, read-out: PDE5 inhibitory concentration as -log IC50 (converted)
T3 construct: were investigated in homogenates of human blood platelets; from tissue; host or cells: human blood platelets (homogenate)
Description: as §1, §3, §2

human PMNL = experiment: Inhibition of the formation of reactive oxygen species (FMLP-stimulated chemiluminescence) in human PMNL; assay type: cell-based; details: 0.05 h, FMLP 100 nM, luminol-potentiated chemiluminescence, AUC over 3 min, read-out: Inhibition of the FMLP-stimulated chemiluminiscence in human PMNL in vitro, inhibitory concentration as -log IC50 (converted)
From the text: In the investigation of PDE4 inhibition at the cellular level, the activation of inflammatory cells has particular importance. An example which may be mentioned is the FMLP (N-formylmethionylleucylphenylalanine)-induced superoxide production of neutrophilic granulocytes, which can be measured as luminol-potentiated chemiluminescence [McPhail L C, Strum S L, Leone P A and Sozzani S, The neutrophil respiratory burst mechanism. In “Immunology Serie” 1992, 57, 47-76; ed. Coffey R G (Marcel Decker, Inc., New York-Basel-Hong Kong)].
The formation of reactive oxygen species determined by means of luminol-potentiated chemiluminescence (5) and the isolation of the PMNL from human blood (6) was carried out essentially as described in (5) and (6): equal-size portions (0.5 ml) of the cell suspension (10^7 cells/ml) were preincubated at 37° C. for 5 min. In the absence or presence of the compounds to be investigated in a buffer solution containing 140 mM NaCl, 5 mM KCl, 10 mM HEPES, 1 mM CaCl2/MgCl2, 1 mg/ml of glucose, 0.05% (w/v) BSA (bovine serum albumin), 10 μM luminol and 4 μM microperoxidase. […]
as §2

SMILES | PDE1 inhibitory concentration as -log IC50 [1] | IC50 [2] | IC50 [3] | PDE4 inhibitory concentration as -log IC50 [4] | IC50 [5] | IC50 (human PMNL) | melting point
CCOc1cc2c(cc1OCC)[C@@H]1CN(C)CC[C@@H]1N=C2c1ccc(NS(=O)(=O)c2ccc(C)cc2)cc1 (relative stereo) [Compound 1, (−)-cis-8,9-Diethoxy-2-methyl-6-[4-(p-toluenesulfonamido)-phenyl]-1,2,3,4,4a,10b-hexahydro-benzo[c][1,6]naphthyridine] | <5 | 1.1 µM | 0.0794 µM | 8.60 | 0.0912 µM | 0.0407 µM | 267 to 268 °C
CCOc1cc2c(cc1OC)C(c1ccc(NS(=O)(=O)c3ccc(C)cc3)cc1)=N[C@H]1CCN(C)C[C@@H]21 (relative stereo) [Compound 2, (−)-cis-9-Ethoxy-8-methoxy-2-methyl-6-[4-(p-toluenesulfonamido)-phenyl]-1,2,3,4,4a,10b-hexahydro-benzo[c][1,6]naphthyridine] | 5.14 | 0.407 µM | 0.0525 µM | 9.00 | 0.182 µM |  | 207 to 219 °C
COc1cc2c(cc1OC)[C@@H]1CN(C)CC[C@@H]1N=C2c1ccc(NS(=O)(=O)c2ccc(C)cc2)cc1 (relative stereo) [Tolafentrine, (−)-cis-8,9-Dimethoxy-2-methyl-6-[4-(p-toluenesulfonamido)-phenyl]-1,2,3,4,4a,10b-hexahydrobenzo[c][1,6]naphthyridine, reference compound] | 4.75 | 0.813 µM | 0.0955 µM | 7.20 | 2.34 µM | 0.851 µM | 
